Measured values as given in PubChem BioAssay (NCI).
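96-well plates; 48 h exposure; 5 concentrations. Endpoints by linear interpolation between flanking doses. Not reached: highest tested concentration assigned. The concentration for 50% growth inhibition is given as GI50. The concentration for full growth arrest is given as TGI.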

Columns and labels:
Experiment in all cases: inhibition of tumour cell growth, NCI panel, 48 h
DLD-1 colon = test system: DLD-1 colon
DMS 114 small cell lung = test system: DMS 114 small cell lung
KM20L2 colon = test system: KM20L2 colon
DMS 273 small cell lung = test system: DMS 273 small cell lung
LXFL 529 NSCLC = test system: LXFL 529 NSCLC
M19-MEL melanoma = test system: M19-MEL melanoma
XF 498 CNS = test system: XF 498 CNS
RXF-631 renal = test system: RXF-631 renal
MDA-N = test system: MDA-N

Row | SMILES | TGI (DLD-1 colon) [µM] | TGI (DMS 114 small cell lung) [µM] | TGI (KM20L2 colon) [µM] | TGI (DMS 273 small cell lung) [µM] | TGI (LXFL 529 NSCLC) [µM] | TGI (M19-MEL melanoma) [µM] | TGI (XF 498 CNS) [µM] | TGI (RXF-631 renal) [µM] | TGI (MDA-N) [µM] | GI50 (KM20L2 colon) [µM] | GI50 (DLD-1 colon) [µM] | GI50 (DMS 273 small cell lung) [µM] | GI50 (LXFL 529 NSCLC) [µM] | GI50 (DMS 114 small cell lung) [µM] | GI50 (XF 498 CNS) [µM] | GI50 (MDA-N) [µM] | GI50 (M19-MEL melanoma) [µM]
1 | O=C1OC2(c3ccccc3Oc3ccccc32)c2ccccc21 | > 100 | > 100 | > 100 | > 100 | > 100 | > 100 | – | – | – | – | – | – | – | – | – | – | –
2 | O=C(c1ccccc1)c1c(C(=O)c2ccccc2)c(-c2ccccc2)c2c(-c3ccccc3)sc(-c3ccccc3)c2c1-c1ccccc1 | > 100 | > 100 | > 100 | > 100 | > 100 | > 100 | > 100 | > 100 | – | – | – | – | – | – | – | – | –
3 | O=C1C(=O)N(c2ccc(Cl)c(Cl)c2)C(=O)C(=O)C1c1nc2ccccc2o1 | > 100 | – | > 100 | > 100 | > 100 | > 100 | > 100 | > 100 | – | – | – | – | – | – | – | – | –
4 | COC(=O)Nc1nc2ccccc2c(=O)[nH]1 | – | – | – | – | – | – | – | – | 50.8 | – | – | – | – | – | – | – | –
5 | O=S1(=O)C[C@@H](O)[C@H](O)CS1 | > 100 | > 100 | > 100 | > 100 | > 100 | > 100 | > 100 | – | – | – | – | – | – | – | – | – | –
6 | Cn1c(=O)c2[nH]c(CS(=O)(=O)Cc3nc4c([nH]3)c(=O)n(C)c(=O)n4C)nc2n(C)c1=O | – | – | – | – | – | – | – | – | > 100 | – | – | – | – | – | – | – | –
7 | CS(=O)c1ccc(COP(N)(=O)N(CCCl)CCCl)cc1 (stereo not drawn) | > 100 | > 100 | > 100 | > 100 | > 100 | > 100 | > 100 | – | – | – | – | – | – | – | – | – | –
8 | COc1ccc2ccc([Se]c3ccc4ccc(OC)cc4c3)cc2c1 | > 100 | > 100 | > 100 | > 100 | > 100 | > 100 | > 100 | – | – | – | – | – | – | – | – | – | –
9 | CC1(C)OCC(CO)(Nc2nc(N3CC3)nc(N3CC3)n2)CO1 | > 93 | 27.2 | 51.8 | 25.8 | > 100 | 34.4 | 29.3 | – | 27.9 | – | – | – | – | – | – | – | –
10 | CN(C)c1ccc2c3c(c(=O)oc2c1)CCC3 | – | – | – | – | – | – | – | – | > 100 | – | – | – | – | – | – | – | –
11 | CCOC(CN=c1nc(N(C)C)ss1)OCC | > 50.8 | 32.9 | > 72.5 | > 67.9 | 20.5 | 19.1 | 47.1 | 32.5 | 24.8 | – | – | – | – | – | – | – | –
12 | C[C@]12CCC(=O)C(O)=C1CC[C@@H]1[C@@H]2CC[C@]2(C)C(=O)CC[C@@H]12 | > 100 | > 100 | > 100 | – | > 100 | – | > 100 | > 100 | > 100 | – | – | – | – | – | – | – | –
13 | CCOC(=O)C(C)c1cc(C2(C)OCCO2)c(C)o1 (stereo not drawn) | > 100 | > 100 | > 100 | > 100 | > 100 | > 100 | > 100 | > 100 | – | – | – | – | – | – | – | – | –
14 | C=C1C(=O)OC2CC3(CO3)C3C(O)C(O)CC3(C)CC12 (stereo not drawn) | – | – | – | – | – | – | – | – | 81.6 | – | – | – | – | – | – | – | –
15 | O=C([CH-]C(=O)c1ccccc1)c1ccccc1.O=C([CH-]C(=O)c1ccccc1)c1ccccc1.[Nd+3].[OH-].[OH3+] | – | – | 28.8 | – | – | – | – | – | – | 8.45 | – | – | – | – | – | – | –
16 | CC(C(=O)Oc1ccc2ccccc2c1-c1c(O)ccc2ccccc12)c1ccccc1 (stereo not drawn) | – | 29.6 | – | – | 27.1 | 30.6 | 27.3 | 33.7 | – | – | – | – | – | – | – | – | –
17 | CCOC(=O)C1C(=O)c2ccccc2CN1Cc1ccccc1 (stereo not drawn) | > 100 | > 100 | > 100 | > 100 | > 100 | > 100 | > 100 | > 100 | – | – | – | – | – | – | – | – | –
18 | c1ccc(N=C2c3ccccc3C3=NCCCN32)cc1 | > 100 | > 100 | > 100 | > 100 | > 100 | > 100 | > 100 | > 100 | – | – | – | – | – | – | – | – | –
19 | COC(=O)c1nc(NC#N)[nH]c(=O)c1C | > 100 | > 100 | > 100 | > 100 | > 100 | > 100 | – | > 100 | – | – | – | – | – | – | – | – | –
20 | CC1NOC(=O)C1N=Nc1ccccc1Cl (stereo not drawn) | > 100 | > 100 | > 100 | – | > 100 | 60.4 | > 100 | > 100 | – | – | – | – | – | – | – | – | –

Row | SMILES | TGI (DLD-1 colon) [µM] | TGI (DMS 114 small cell lung) [µM] | TGI (KM20L2 colon) [µM] | TGI (DMS 273 small cell lung) [µM] | TGI (LXFL 529 NSCLC) [µM] | TGI (M19-MEL melanoma) [µM] | TGI (XF 498 CNS) [µM] | TGI (RXF-631 renal) [µM] | TGI (MDA-N) [µM] | GI50 (KM20L2 colon) [µM] | GI50 (DLD-1 colon) [µM] | GI50 (DMS 273 small cell lung) [µM] | GI50 (LXFL 529 NSCLC) [µM] | GI50 (DMS 114 small cell lung) [µM] | GI50 (XF 498 CNS) [µM] | GI50 (MDA-N) [µM] | GI50 (M19-MEL melanoma) [µM]
21 | CC(=O)Nc1ccc(C2[C@H]3C(=O)N(c4ccc(Cc5ccc(N6C(=O)[C@@H]7ON(c8ccccc8)C(c8ccc(NC(C)=O)cc8)[C@@H]7C6=O)cc5)cc4)C(=O)[C@H]3ON2c2ccccc2)cc1 (stereo partly drawn) | > 100 | > 100 | > 100 | > 100 | > 100 | > 100 | – | – | – | – | – | – | – | – | – | – | –
22 | O=c1cc2ccccc2nn1-c1ccccc1Cl | > 100 | > 100 | > 100 | > 100 | – | > 100 | 77.5 | – | – | – | – | – | – | – | – | – | –
23 | C=C1CC[C@@H]2C(C)(C)CCC[C@@]2(C)[C@@H]1Cc1cc(O)ccc1O | 18.1 | 4.1 | 32.8 | 19.4 | 6.68 | 11 | – | – | – | – | – | – | – | – | – | – | –
24 | CC(=O)OC(C)(C)/C=C/C(=O)[C@](C)(O)[C@H]1[C@H](O)C[C@@]2(C)[C@@H]3CC=C4[C@@H](C[C@H](O)C(=O)C4(C)C)[C@]3(C)C(=O)C[C@]12C | – | – | – | – | – | – | – | – | 2.39 | – | – | – | – | – | – | – | –
25 | O=C(O)C12C3CCCC1C2CC3 (stereo not drawn) | > 100 | > 100 | > 100 | – | > 100 | > 100 | > 100 | > 100 | – | – | – | – | – | – | – | – | –
26 | N.N.NC(CS)C(=O)[O-].NC(CS)C(=O)[O-].[Pt+4] (stereo not drawn) | > 50 | – | > 50 | > 50 | > 50 | – | – | – | – | > 50 | > 50 | > 50 | > 50 | – | – | – | –
27 | Cc1c2cc[nH]c(=O)c2cc2c(=O)c3cnccc3[nH]c12 | > 100 | > 100 | > 100 | > 100 | > 100 | > 100 | – | – | – | – | – | – | – | – | – | – | –
28 | CC(=O)OCC1OC(n2c(=O)n(-c3ccccc3)c(=O)c3ccccc32)C(OC(C)=O)C(OC(C)=O)C1OC(C)=O (stereo not drawn) | > 100 | > 100 | > 100 | > 100 | > 100 | > 100 | – | > 100 | – | – | – | – | – | – | – | – | –
29 | CC(C)(O)C1OCC(C2CCC3(C)C4=CCC5C(C)(C)C(O)CCC5(C)C4CCC23C)CC1O (stereo not drawn) | – | – | – | – | – | – | – | – | 41.8 | – | – | – | – | – | – | – | –
30 | CN(c1ccccc1)C(c1ccccc1)C(O)c1ccccc1 (stereo not drawn) | 47.5 | 47.5 | 35.7 | 34 | 43.4 | 42.4 | – | 43.2 | – | – | – | – | – | – | – | – | –
31 | COC(=O)C1=C(O)C(O)=C(C(=O)OC)C1 | > 100 | > 100 | > 100 | > 100 | > 100 | > 100 | – | – | – | – | – | – | – | – | – | – | –
32 | CCOP(=O)(OCC)/C(C#N)=C/c1ccco1 | > 100 | > 100 | – | – | > 100 | > 100 | > 100 | > 100 | – | – | – | – | – | – | – | – | –
33 | ON=C1CCC(c2ccccc2)CC1 (stereo not drawn) | > 100 | > 100 | > 100 | > 100 | > 100 | > 100 | > 100 | – | – | – | – | – | – | – | – | – | –
34 | COC(=O)c1ccc(N=NN(C)CO)cc1 | > 100 | > 100 | > 100 | > 100 | > 100 | > 100 | 9.97 | – | – | – | – | – | – | – | – | – | –
35 | CCOC(=O)CC1=CSC2=NCCN12 | > 100 | > 100 | > 100 | > 100 | > 100 | > 100 | > 100 | > 100 | – | – | – | – | – | – | – | – | –
36 | COc1ccc(/C=C2/C[N+](C)(C)C/C(=C/c3ccc(OC)cc3)C2=O)cc1 | > 100 | > 69.3 | > 100 | 51.3 | > 100 | 69.4 | > 100 | – | – | – | – | – | – | – | – | – | –
37 | COc1c(O)ccc2c1CN1CCc3cc4c(cc3C1C2)OCO4 (stereo not drawn) | – | – | – | – | – | – | – | – | > 80.8 | – | – | – | – | – | – | – | –
38 | CCOC(=O)C(=O)Nc1c(N(CC)CC)n2ccccc2nc1=O | > 100 | > 100 | > 100 | > 100 | > 100 | > 100 | > 100 | > 100 | – | – | – | – | – | – | – | – | –
39 | CC1=Cc2cc3[n-]c(cc4nc(cc5[n-]c(cc1n2)cc5C)C(C)=C4CCC(=O)O)c(CCC(=O)O)c3C.[Pd+2] | 35.8 | 11.2 | 44.3 | 32.7 | 11.1 | 20.5 | 31.5 | – | > 100 | 17.5 | 14.5 | 12 | 2.86 | 3.18 | 14.2 | > 100 | 3.64
40 | CC(C)(C)[C@H]1CO[C@]2(C)[C@@H]3C[C@@H]3C(=O)N12 | > 100 | > 100 | > 100 | > 100 | – | > 100 | > 100 | > 100 | – | – | – | – | – | – | – | – | –
